Experimental data reported in patent publication US10961215B2, “N-aryl and N-heteroaryl piperidine derivatives as liver X receptor beta agonists, compositions, and their use” (Merck Sharp & Dohme Corp., priority 2016, dated 2021).

Assays:
[1] = molecular target: T1, GST tagged LXRbeta LBD (ligand binding domain) (Homo sapiens, UniProt P55055); experiment: LanthaScreen TR-FRET Liver X Receptor Coactivator Assay, LXR beta-LBD (co-activator recruitment; IP and % Emax relative to T0901317); type: biochemical; settings: for EC50: Inflection Point of co-activator recruitment, LXR beta-LBD, TR-FRET; for Emax: efficacy at max dose in relation to reference T0901317, LXR beta-LBD, read-out: LXR beta actiivty at max dose (%)
T1 construct: purchased Invitrogen pv4658.pps
T1 sequence (P55055 222-460 limits assumed): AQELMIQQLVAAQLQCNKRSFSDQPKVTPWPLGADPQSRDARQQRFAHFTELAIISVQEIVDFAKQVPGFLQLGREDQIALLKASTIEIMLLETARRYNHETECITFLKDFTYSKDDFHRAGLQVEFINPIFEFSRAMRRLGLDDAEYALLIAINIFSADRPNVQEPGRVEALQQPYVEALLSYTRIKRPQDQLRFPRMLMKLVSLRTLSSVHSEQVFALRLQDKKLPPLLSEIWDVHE
Outline: (§1)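 TR-FRET coactivator recruitment; LBD + cpd, then fluorescein coactivator peptide/Tb anti-GST Ab mix; RT incubation; IP and Emax vs T0901317.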

[2] = molecular target: T2, GST tagged LXRalpha LBD (ligand binding domain) (Homo sapiens, UniProt Q13133); experiment: LanthaScreen TR-FRET Liver X Receptor Coactivator Assay, LXR alpha-LBD (co-activator recruitment; IP and % Emax relative to T0901317); type: biochemical; settings: for LXR alpha IP (nM) / EC50: Inflection Point of co-activator recruitment, LXR alpha-LBD, TR-FRET; for Emax: efficacy at max dose in relation to reference T0901317, LXR alpha-LBD, read-out: LXR alpha actiivty at max dose (%)
T2 construct: purchased Invitrogen pv4655
T2 sequence (Q13133 209-447 limits assumed): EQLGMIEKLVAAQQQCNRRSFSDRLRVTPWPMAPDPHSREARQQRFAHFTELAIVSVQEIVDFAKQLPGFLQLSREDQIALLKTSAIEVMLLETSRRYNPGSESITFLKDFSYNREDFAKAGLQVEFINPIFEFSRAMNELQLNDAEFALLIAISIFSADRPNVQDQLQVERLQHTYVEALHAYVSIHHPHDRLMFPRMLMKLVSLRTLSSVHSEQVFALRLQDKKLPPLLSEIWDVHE
Outline: as §1

| SMILES | EC50 [1] [nM] | Emax [1] [%] | LXR alpha IP (nM) [2] | Emax [2] [%] | EC50 [2] [nM] |
| --- | --- | --- | --- | --- | --- |
| CN(C)C(=O)c1ccc(N2CCC(CCCN(C)C(=O)[C@](C)(O)c3ccccc3)CC2)nc1Cl [Example 1-20, (R)-2-chloro-6-(4-(3-(2-hydroxy-N-methyl-2-phenylpropanamido)propyl)piperidin-1-yl)-N,N-dimethylnicotinamide] | 508 | 32 | No IP | 6 |  |
| COc1cccc([C@@](O)(C(=O)N(C)C[C@@H]2C[C@@H]2CC2CCN(c3ccc(C(=O)N(C)C)c(Cl)n3)CC2)C(F)(F)F)c1 [Example 18-2, 2-chloro-N,N-dimethyl-6-(4-(((1S,2R)-2-(((R)-3,3,3-trifluoro-2-hydroxy-2-(3-methoxyphenyl)-N-methylpropanamido)methyl)cyclopropyl)methyl)piperidin-1-yl)nicotinamdie] | 124 | 44 | No IP | 0 |  |
| COc1cccc([C@@](O)(C(=O)Nc2ccc(C3CCN(c4ccc(C(=O)N(C)C)c(Cl)c4)CC3)cc2)C(F)(F)F)c1 [Example 10-3, (R)-2-chloro-N,N-dimethyl-4-(4-(4-(3,3,3-trifluoro-2-hydroxy-2-(3-methoxyphenyl)propanamido)phenyl)piperidin-1-yl)benzamide] | 1330 | 67 | No IP | 18 |  |
| CN(C)C(=O)c1ccc(N2CCC([C@@H]3C[C@H]3CN(C)C(=O)[C@@](O)(c3ccccc3)C(F)(F)F)CC2)cc1Cl [Example 15-20, 2-chloro-N,N-dimethyl-4-(4-((1S,2R)-2-(((S)-3,3,3-trifluoro-2-hydroxy-N-methyl-2-phenylpropanamido)methyl)cyclopropyl)piperidin-1-yl)benzamide] | 403 | 65 | No IP | 12 |  |
| COc1cccc([C@@](O)(C(=O)N(C)CCCC2CCN(c3ccc(C(=O)N4CC(N)C4)c(Cl)n3)CC2)C(F)(F)F)c1 [Example 2-13, (R)-N-(3-(1-(5-(3-aminoazetidine-1-carbonyl)-6-chloropyridin-2-yl)piperidin-4-yl)propyl)-3,3,3-trifluoro-2-hydroxy-2-(3-methoxyphenyl)-N-methylpropanamide] | 195 | 60 | No IP | 11 |  |
| COc1cccc([C@@](O)(C(=O)N(C)CC[C@@H]2CC23CCN(c2ccc(C(=O)NC4CC4)c(Cl)c2)CC3)C(F)(F)F)c1 [Example 7-27, 2-chloro-N-cyclopropyl-4-((S)-1-(2-((R)-3,3,3-trifluoro-2-hydroxy-2-(3-methoxyphenyl)-N-methylpropanamido)ethyl)-6-azaspiro[2.5]octan-6-yl)benzamide] | 1870 | 32 | No IP | 5 |  |
| COc1cccc([C@@](O)(C(=O)N(C)CCCC2(F)CCN(c3ccc(C(=O)N(C)C)c(Cl)n3)CC2)C(F)(F)F)c1 [Example 12-3, (R)-2-chloro-6-(4-fluoro-4-(3-(3,3,3-trifluoro-2-hydroxy-2-(3-methoxyphenyl)-N-methylpropanamido)propyl)piperidin-1-yl)-N,N-dimethylnicotinamide] | 151 | 58 | No IP | 12 |  |
| COc1cccc([C@@](O)(C(=O)N(C)CC[C@H]2CC23CCN(c2ccc(C(=O)N(C)C(C)C)c(Cl)c2)CC3)C(F)(F)F)c1 [Example 7-14, 2-chloro-N-isopropyl-N-methyl-4-((R)-1-(2-((R)-3,3,3-trifluoro-2-hydroxy-2-(3-methoxyphenyl)-N-methylpropanamido)ethyl)-6-azaspiro[2.5]octan-6-yl)benzamide] | 18 | 55 | No IP | 6 |  |
| COc1cccc([C@@](O)(C(=O)N(C)CCCC2CCN(c3ccc(C(=O)NC(C)C)c(Cl)n3)CC2)C(F)(F)F)c1 [Example 2-1, (R)-2-chloro-N-isopropyl-6-(4-(3-(3,3,3-trifluoro-2-hydroxy-2-(3-methoxyphenyl)-N-methylpropanamido)propyl)piperidin-1-yl)nicotinamide] | 686 | 51 | No IP | 18 |  |
| COc1cccc([C@@](O)(C(=O)N(C)CCCC2CCN(c3ccc(C(=O)NC4CC4)c(Cl)n3)CC2)C(F)(F)F)c1 [Example 2-2, (R)-2-chloro-N-cyclopropyl-6-(4-(3-(3,3,3-trifluoro-2-hydroxy-2-(3-methoxyphenyl)-N-methylpropanamido)propyl)piperidin-1-yl)nicotinamide] | 688 | 44 | No IP | 7 |  |
| CNC(=O)c1ccc(N2CCC(CC3CC(NC(=O)[C@](O)(c4cccc(OC)c4)C(F)(F)F)C3)CC2)cc1Cl (stereo partly drawn) [Example 11-5, (R)-2-chloro-N-methyl-4-(4-((3-(3,3,3-trifluoro-2-hydroxy-2-(3-methoxyphenyl)propanamido)cyclobutyl)methyl)piperidin-1-yl)benzamide] | 653 | 53 | No IP | 7 |  |
| CN(C)C(=O)c1ccc(N2CCC(CCCN(C)C(=O)[C@@](O)(c3ccccc3)C3CC3)CC2)nc1Cl [Example 1-25, (S)-2-chloro-6-(4-(3-(2-cyclopropyl-2-hydroxy-N-methyl-2-phenylacetamido)propyl)piperidin-1-yl)-N,N-dimethylnicotinamide] | 110 | 71 |  | 26 | 3360 |
| CN(C)C(=O)c1ccc(N2CCC(C[C@H]3C[C@H]3CN(C)C(=O)[C@](O)(c3ccccc3)C(F)(F)F)CC2)nc1Cl [Example 18-1, 2-chloro-N,N-dimethyl-6-(4-(((1S,2R)-2-(((R)-3,3,3-trifluoro-2-hydroxy-N-methyl-2-phenylpropanamido)methyl)cyclopropyl)methyl)piperidin-1-yl)nicotinamide] | 131 | 56 | No IP | 12 |  |
| CCOc1cccc([C@@](O)(C(=O)N(C)C[C@@H]2C[C@@H]2C2CCN(c3ccc(C(=O)N(C)C)c(Cl)n3)CC2)C(F)(F)F)c1 [Example 15-1, 2-chloro-6-(4-((1R,2R)-2-(((R)-2-(3-ethoxyphenyl)-3,3,3-trifluoro-2-hydroxy-N-methylpropanamido)methyl)cyclopropyl)piperidin-1-yl)-N,N-dimethylnicotinamide] | 34 | 66 | No IP | 9 |  |
| COc1cccc([C@@](O)(C(=O)N(C)CCCC2(F)CCN(c3ccc(C(=O)N(C)C)c(Cl)c3)CC2)C(F)(F)F)c1 [Example 12-2, (R)-2-chloro-4-(4-fluoro-4-(3-(3,3,3-trifluoro-2-hydroxy-2-(3-methoxyphenyl)-N-methylpropanamido)propyl)piperidin-1-yl)-N,N-dimethylbenzamide] | 218 | 25 | No IP | 4 |  |
| CN(C)C(=O)c1ccc(N2CCC([C@H]3C[C@@H](N(C)C(=O)[C@](O)(c4cccc(OC5CC5)c4)C(F)(F)F)C3)CC2)nc1Cl [Example 17-5, Cis-2-chloro-6-(4-(-3-((R)-2-(3-cyclopropoxyphenyl)-3,3,3-trifluoro-2-hydroxy-N-methylpropanamido)cyclobutyl)piperidin-1-yl)-N,N-dimethylnicotinamide] | 148 | 20 | No IP | 0 |  |
| CN(C)C(=O)c1ccc(N2CCC([C@H]3C[C@H]3CN(C)C(=O)[C@](O)(c3cccc(OC(F)(F)F)c3)C(F)(F)F)CC2)nc1Cl [Example 15-4, 2-chloro-N,N-dimethyl-6-(4-((1R,2R)-2-(((R)-3,3,3-trifluoro-2-hydroxy-N-methyl-2-(3-(trifluoromethoxy)phenyl)propanamido)methyl)cyclopropyl)piperidin-1-yl)nicotinamide] | 23 | 50 |  | 15 | 623 |
| CN(C)C(=O)c1ccc(N2CCC(C)(CCCN(C)C(=O)[C@](O)(c3ccccc3)C(F)(F)F)CC2)nc1Cl [Example 9-2, (R)-2-chloro-N,N-dimethyl-6-(4-methyl-4-(3-(3,3,3-trifluroo-2-hydroxy-N-methyl-2-phenylpropanamido)propyl)piper-idin-1-yl)nicotinamide] | 18 | 47 |  | 21 | 441 |
| CN(C)C(=O)c1ccc(N2CCC(C)(CCCN(C)C(=O)[C@](O)(c3ccccc3)C(F)(F)F)CC2)cc1Cl [Example 9-7, (R)-2-chloro-N,N-dimethyl-4-(4-methyl-4-(3-(3,3,3-trifluoro-2-hydroxy-N-methyl-2-phenylpropanamido)propyl)piper-idin-1-yl)benzamide] | 78 | 42 |  | 19 | 921 |
